Results: paper PMC7956476, “Quinoline Functionalized Schiff Base Silver (I) Complexes: Interactions with Biomolecules and In Vitro Cytotoxicity, Antioxidant and Antimicrobial Activities” (Molecules, 2021)

Legend:
[1] = Ferric reducing antioxidant power (FRAP) assay; assay type: biochemical; settings: done in triplicate
Source text: Antioxidants are important in protecting the human body against damage by reactive oxygen species (ROS). Accumulation of ROS in the cells may lead to damage of the DNA, RNA, and proteins which subsequently leads to several physiological disorders such as cardiovascular disease, diabetes, rheumatism, atherosclerosis, cancer, aging and cell death. […] The free radical scavenging ability of all ligands and complexes in this study were investigated using ferric reducing antioxidant power (FRAP). In antioxidant studies, FRAP assay is often preferred because it is simple, fast, economical, and direct in antioxidant measurement. FRAP assay is based on the electron-donating ability of an antioxidant compound. This involves the reduction of a colorless Fe^3+ tripyridyltriazine complex (Fe^3+ (TPTZ)) to an intense blue-colored Fe^2+ tripyridyltriazine complex (Fe^2+ (TPTZ)) by the electron-donating antioxidants at low pH [69]. The reducing power is to determine the reductive ability of the test compounds.
Antioxidant activity studies of L1–L5 and Q1–Q15 were done using ferric reducing antioxidant power (FRAP) assay. The ferric reducing antioxidant power assay is often used to evaluate the ability of an antioxidant to donate an electron. […] The resulting mixture was incubated at 50 °C for 20 min, and 2.5 mL of 10% trichloroacetic acid was added to acidify the mixture. After that, 1 mL of the acidified mixture was added to 1 mL of distilled water and 0.5 mL of 0.1% FeCl3. The absorbance of the resulting solution was then measured at 700 nm. The antioxidant power of the compounds was expressed as a percentage of ferric reducing antioxidant power Ascorbic acid equivalent, as shown in Equation (4). (4) % FRAP =Absorbance of Absorbance of Sample/Absorbance of Ascorbic Acid ×100

calf thymus DNA (CT-DNA) = assay: CT-DNA electronic absorption titration (Wolfe–Shimer); assay type: binding; settings: for CT-DNA-Cmp. Kb (M^−1) × 10^5: intrinsic binding constant, absorption titration, PBS pH 7.2
Procedure: The interaction of the L1–L5 and complexes Q1–Q15 with calf thymus-DNA was carried out in a Phosphate buffer saline solution pH 7.2 stored at 4 °C. The DNA stock solution was prepared by dissolving CT-DNA sodium salt in Phosphate buffer saline solution with continuous stirring overnight. It was filtered and stored at 4 °C and used within four days. […] A fixed amount of the L1–L5 and complexes Q1–Q15 (50 µM) were prepared by dissolving an appropriate amount in DMSO. […] Therefore, in all the experimental of the interaction of L1–L5 and complexes Q1–Q15 with biomolecules, the final concentration of DMSO in the incubation mixture was ~2% (v/v).
The binding modes of L1–L5 and complexes Q1–Q15 to CT-DNA were characterized through electronic absorption titration by varying concentrations of CT-DNA (0–30 µM) in phosphate buffer saline solution against fixed concentrations (20 µM) of L1–L5 and complexes Q1–Q15. […] The absorbance of CT-DNA is cancelled by adding equivalent amounts of CT-DNA to both the tested compounds and the reference solutions.

[2] = test system: Salmonella typhimurium ATCC 14026; assay: Minimum inhibitory concentration (MIC), spotting on Müeller–Hinton agar; assay type: cell-based; settings: Gram − Ve, S. typhi, 37 °C, 18 h; for MIC: Salmonella enterica, read-out: Minimum inhibitory concentration, ST
Procedure: (§1) Sterilized Nutrient agar medium was first prepared by dissolving 38 g of Müeller–Hinton agar (MHA) (Biolab, Midrand, Africa) in distilled water (1 L). […] The cooled Agar medium was poured in Petri dishes while ensuring a uniform 4 mm depth of the medium and cooling further to ambient temperature.
(§2) These bacteria were inoculated in a sterilized Nutrient Broth (NB) (Biolab, Midrand, Africa) through streak plate technique and incubated at 37 °C for 18 h. The nutrient broth was sterilized by dissolving 1.3 g in distilled water (100 mL). Ca. 10 mL of the nutrient broth was transferred into a cotton wool-plugged test tubes and wrapped with an aluminium foil. […] Following this was the isolation of a single colony of the bacteria and inoculated into a 10 mL sterile NB which was then incubated in a shaking incubator at 37 °C for 18 h. Each of the bacteria strain concentrations was adjusted with sterile distilled water to get a final concentration of 1.5 × 10^8 cfu/mL, i.e., 0.5 Mc Farland’s Standard using a densitometer (Mc Farland Latvia). The bacteria were lawn inoculated on the set MHA Petri dishes using a sterile cotton swab. Screening of L1–L5 and Q1–Q15 for antibacterial activity was first carried out by spotting 5 µL of their solution (prepared from the dissolution of 1000 µg of the L1–L5 and Q1–Q15 in 1 mL dimethyl sulfoxide (DMSO)) on an MHA petri dish and incubated at 37 °C for 18 h. The antibacterial activity was determined by looking out for a clear zone at the spotting point.

[3] = test system: Escherichia coli ATCC 25922; assay: as above; assay type: cell-based; settings: Gram − Ve, E. coli, 37 °C, 18 h
Procedure: as §1, §2

[4] = test system: Pseudomonas aeruginosa ATCC 27853; assay: as above; assay type: cell-based; settings: Gram − Ve, P. aeruginosa, 37 °C; for Minimum inhibitory concentration, PA: 18 h; for MIC: Pseudomonas aeruginosa, ATCC27853, 18 h, read-out: Minimum inhibitory concentration, PA
Procedure: as §1, §2

[5] = test system: Staphylococcus aureus ATCC 700699 (methicillin-resistant); assay: as above; assay type: cell-based; settings: Gram + Ve, methicillin-resistant S. aureus, 37 °C, 18 h
Procedure: as §1, §2

CT-DNA-EB adduct = assay: Fluorescence competitive displacement of ethidium bromide from CT-DNA; assay type: binding, calf; settings: for CT-DNA-EB-Complex Ksv (M^−1) × 10^4: Stern–Volmer quenching constant, EB displacement, 25 °C; for CT-DNA-EB-Complex Kq (M^−1S^−1) × 10^12: bimolecular quenching constant, Ksv = Kqτo, τo 10^−8 s; for CT-DNA-EB-Complex Kbin (M^−1) × 10^5: binding constant from double-logarithmic plot
Source text: The Stern–Volmer plot approach was used based on the fact that the Stern–Volmer plots for Q1–Q15 (Figure 5c), were linear an indication of only one mechanism for the quenching fluorescence, i.e., either dynamic or static. […] (1) Ksv=Kqτo where Ksv, Kq, and τo represent Stern–Volmer quenching constant, bimolecular quenching constant, and an average lifetime of the fluorophore in the absence of the quencher, respectively. τₒ normally takes about 10^−8 s in biomacromolecules.
The double-logarithmic Equation (2) was used in determining the binding constant of complexes Q1–Q15 and CT-DNA. (2) logFo−F/F=logKb+n logQ
A competitive displacement study was carried out using fluorescence spectroscopy between CT-DNA pre-treated with ethidium bromide (EB) and complexes Q1–Q15 to establish the complexes′ actual mode of binding to CT-DNA. […] The competitive luminescence displacement assay was done using a modified method. Pre-treated 15 µM solution of EB with 15 µM of CT-DNA was prepared in a phosphate buffer of pH 7.2 and left to equilibrate for 30 min. Keeping CT-DNA-EB concentrations constant, different concentrations (0–20 µM) of the complexes were added at 8 min incubation interval at room temperature. The fluorescence quenching ability of CT-DNA bound EB by the complexes were recorded in the wavelength range of 530–700 nm with an excitation wavelength at 525 nm at 25 °C. (6) Fo/F=1+KSVQ=1+KqτoQ
A Stern–Volmer (Equation (6)) was used to evaluate the CT-DNA-EB fluorescence quenching of the complexes. Where Fo and F denote the relative fluorescence intensities of CT-DNA in the absence and presence of the quencher, Ksv, Stern–Volmer quenching constant, [Q], quencher concentration, Kq, bimolecular quenching constant and τo, average lifetime of the fluorophore in the absence of the quencher which is typically equal to 10^−8 s in biomacromolecules.

[6] = biological target: bovine serum albumin (BSA) (Bos taurus, UniProt P02769); assay: Albumin binding by absorption spectroscopy titration
Source text: Bovine serum albumin (BSA) was used as the protein standard in this study because of its close resemblance to human serum albumin (HSA), its stability, high solubility, neutrality in many biochemical reactions and low cost. In protein binding study, absorption spectroscopy titration is a known method used in studying the conformational changes in proteins, and this protein is characterized by an intense absorbance peak at 280 nm depicting the microenvironment around tyrosine and tryptophan residue polarity.
The absorbance assay of albumin binding is a very simple method used in identifying the conformational changes in protein. […] A stock solution of bovine serum albumin (BSA) was prepared by dissolving an appropriate amount of BSA in phosphate buffer saline solution (pH 7.2) under constant stirring for 1 h at 25 °C. It was kept at 4 °C and used within four days. […] The stock solution of the complex was prepared by dissolving 1 mmol of the complexes in DMSO. The absorption titration assay was done by adding different concentrations (0–10 µM) of the complexes to a constant BSA concentration (6 µM). The sample solution was incubated after each addition of the concentrations for 10 min at 25 °C before recording the absorbance at λmax 280 nm.

Sequence of bovine serum albumin (BSA) (P02769 25-607): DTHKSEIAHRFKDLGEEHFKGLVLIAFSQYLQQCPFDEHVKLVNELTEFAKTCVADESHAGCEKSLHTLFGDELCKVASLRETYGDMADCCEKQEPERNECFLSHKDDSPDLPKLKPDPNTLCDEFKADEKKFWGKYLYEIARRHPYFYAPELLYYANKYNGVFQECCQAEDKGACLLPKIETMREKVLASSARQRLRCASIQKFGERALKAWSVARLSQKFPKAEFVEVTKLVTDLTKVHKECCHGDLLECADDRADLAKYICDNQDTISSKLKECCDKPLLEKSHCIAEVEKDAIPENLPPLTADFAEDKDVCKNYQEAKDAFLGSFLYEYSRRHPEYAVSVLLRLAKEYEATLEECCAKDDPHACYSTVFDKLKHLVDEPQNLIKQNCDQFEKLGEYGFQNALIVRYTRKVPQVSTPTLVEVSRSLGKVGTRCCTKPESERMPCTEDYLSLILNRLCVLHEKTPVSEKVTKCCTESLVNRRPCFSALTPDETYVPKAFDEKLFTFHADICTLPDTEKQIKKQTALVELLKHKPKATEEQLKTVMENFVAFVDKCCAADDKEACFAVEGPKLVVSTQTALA

Structure (SMILES) | Antioxidant (IC50 mg/mL) FRAP [1] | CT-DNA-Cmp. Kb (M^−1) × 10^5 (calf thymus DNA (CT-DNA)) | MIC [2] | MIC ([3]; Escherichia coli, ATCC25922, read-out: Minimum inhibitory concentration, EC) | Minimum inhibitory concentration, PA [4] | MIC [4] | MIC ([5]; Staphylococcus aureus, ATCC 700699 / MRSA) | CT-DNA-EB-Complex Ksv (M^−1) × 10^4 (CT-DNA-EB adduct) | CT-DNA-EB-Complex Kq (M^−1S^−1) × 10^12 (CT-DNA-EB adduct) | CT-DNA-EB-Complex Kbin (M^−1) × 10^5 (CT-DNA-EB adduct) | Protein-Complex Kb (M^−1) × 10^4 [6] | Minimum inhibitory concentration, ST [2] | Minimum inhibitory concentration, EC [3] | Minimum inhibitory concentration, MRSA [5] | hypochromic shift in the absorption bands on addition of CT-DNA (calf thymus DNA (CT-DNA); absorption titration with CT-DNA)
Cc1ccc(/N=C/c2ccc3ccccc3n2)cc1 [Complex L4, (E)-1-(quinolin-2-yl)-N-(p-tolyl)methanimine] | 4.50 ± 0.0053 mg/mL | 1.60 (M^−1) × 10^5 | 1000 µg/mL | 1000 µg/mL |  |  |  |  |  |  |  |  |  |  | 
Clc1ccc(/N=C/c2ccc3ccccc3n2)cc1 [Complex L3, (E)-N-(4-chlorophenyl)-1-(quinolin-2-yl)methanimine] | 20.35 ± 0.0047 mg/mL |  |  |  | 100 µg/mL | 50 to 100 µg/mL | 1000 µg/mL |  |  |  |  |  |  |  | 
O=S(=O)([O-])C(F)(F)F.[Ag+].c1ccc2nc(-c3nc4ccccc4s3)ccc2c1.c1ccc2nc(-c3nc4ccccc4s3)ccc2c1 [Complex Q12, [Ag(L2)2]CF3SO3] | 1.86 ± 0.024 mg/mL | 4.50 (M^−1) × 10^5 |  |  | 12.5 µg/mL |  |  | 3.14 (M^−1) × 10^4 | 3.14 (M^−1S^−1) × 10^12 | 2.12 (M^−1) × 10^5 | 20.7 (M^−1) × 10^4 | 50 µg/mL | 25 µg/mL | 50 µg/mL | 
C(=NCc1cccs1)c1ccc2ccccc2n1.C(=NCc1cccs1)c1ccc2ccccc2n1.O=S(=O)([O-])C(F)(F)F.[Ag+] [Complex Q15, [Ag(L5)2]CF3SO3] | 3.35 ± 0.012 mg/mL | 4.00 (M^−1) × 10^5 |  |  | ~0.8 µg/mL |  |  | 2.48 (M^−1) × 10^4 | 2.48 (M^−1S^−1) × 10^12 | 5.29 (M^−1) × 10^5 | 13.1 (M^−1) × 10^4 | 1000 µg/mL | 25 µg/mL | 100 µg/mL | 
O=S(=O)([O-])C(F)(F)F.[Ag+] [AgCF3SO3, silver trifluoromethanesulfonate, reference compound] | 0.88 ± 0.054 mg/mL | 2.00 (M^−1) × 10^5 |  |  | 1000 µg/mL |  |  | 3.01 (M^−1) × 10^4 | 3.01 (M^−1S^−1) × 10^12 | 1.60 (M^−1) × 10^5 | 4.46 (M^−1) × 10^4 | 12.5 µg/mL | 50 µg/mL | 1000 µg/mL | 23.64–50.86%
O=C1O[C@H]([C@@H](O)CO)C(O)=C1O [Ascorbic Acid, Ascorbic acid, reference compound] | 2.68 ± 0.11 mg/mL |  |  |  |  |  |  |  |  |  |  |  |  |  | 
c1ccc2nc(-c3nc4ccccc4s3)ccc2c1 [Complex L2, 2-(quinolin-2-yl)benzo[d]thiazole] | 2.29 ± 0.0041 mg/mL | 1.50 (M^−1) × 10^5 |  |  | 100 µg/mL | 50 to 100 µg/mL |  |  |  |  |  |  |  |  | 
C(=N\Cc1cccs1)/c1ccc2ccccc2n1 [Complex L5, (E)-1-(quinolin-2-yl)-N-(thiophen-2-ylmethyl)methanimine] | 3.79 ± 0.0052 mg/mL | 1.17 (M^−1) × 10^5 | 50 µg/mL |  |  | 100 µg/mL |  |  |  |  |  |  |  |  | 
Cc1ccc(N=Cc2ccc3ccccc3n2)cc1.Cc1ccc(N=Cc2ccc3ccccc3n2)cc1.O=[N+]([O-])[O-].[Ag+] [Complex Q4, [Ag(L4)2]NO3] | 2.14 ± 0.0035 mg/mL | 4.00 (M^−1) × 10^5 |  |  | 12.5 µg/mL |  |  | 3.50 (M^−1) × 10^4 | 3.50 (M^−1S^−1) × 10^12 | 2.11 (M^−1) × 10^5 | 10.3 (M^−1) × 10^4 | 50 µg/mL | 12.5 µg/mL | 50 µg/mL | 
